# Several values for one entry are separate records, joined by “and”; a condition that tells them apart may be missing. Equal values may be shown once.
# Legend:
# Format in all cases: cell-based, human
# [1] = tested on: MLL leukemia cells (MV4;11, MOLM13, KOPN8, RS4;11); experiment: MTT cell viability assay, MLL leukemia cells as a group; conditions: Homo sapiens, MLL leukemia cells
# Protocol: (§1) Human leukemia cells K562, MV4;11 and RS4;11 (purchased from ATCC) and KOPN8, MOLM13 (purchased from DSMZ) were cultured in RPMI 1640 (Invitrogen) supplemented with 10% heat inactivated (h.i.) FBS and 1% penicillin/streptomycin (Invitrogen). SET2 cells (purchased from DSMZ) were cultured in RPMI 1640 supplemented with 20% h.i. FBS and 1% penicillin/streptomycin. Cells were plated at 1 × 10^5 to 2 × 10^5 cells/mL depending on cell line and treated with 0.25% DMSO or varying concentrations of compounds and incubated at 37 °C, 5% CO2 incubator for 7 days. Media was changed on day 3 or 4 and compounds were resupplied. […] Cell suspensions (100 μL) were transferred to the 96-well plates for each sample in quadruplicate at the time of media change. At day 7, 10 µL of MTT reagent (M6494, Molecular Probes™) was added to each well of the 96 well plate and incubated at 37 °C for 4 h. The formazan was then solubilized by adding 100 µL acidified 10% SDS solution and incubated at 37 °C overnight. Plates were read for absorbance at 570 nm using a PHERAstar BMG microplate reader. The experiments were performed two times in quadruplicates with calculation of mean and SD for each condition. Data were analyzed in Prism 8.0.0 to obtain GI50 values.
# Supplementary Figure 4. Cell viability assay for AS-6 in MLL leukemia cell lines. Titration curves from the MTT cell viability assay performed after 7 days of treatment of human MLL1- […]
# replicates. Representative graphs are shown from two independent MTT experiments performed […]
# (§2) Supplementary Figure 7. […] (a)
# Titration curves from the MTT cell viability assay performed after 4, 7, and 11 (or 10) days of […]
# Titration curves from the MTT cell viability assay performed after 7 days of treatment of KOPN8 , MOLM13 and MV4;11 cell lines harboring MLL1 translocation (MLL1-r) or K562 cell line (non- […]
# Representative graphs are shown from two independent MTT experiments performed for each cell line. GI50 values correspond to […]
# [2] = tested on: MOLM13 cells; experiment: MTT cell viability assay; conditions: Fig S7b
# Protocol: (§3) FBS and 1% penicillin/streptomycin. […] Media was changed on day 3 or 4 and compounds were resupplied. […] Cell suspensions (100 μL) were transferred to the 96-well plates for each sample in quadruplicate at the time of media change. At day 7, 10 µL of MTT reagent (M6494, Molecular Probes™) was added to each well of the 96 well plate and incubated at 37 °C for 4 h. The formazan was then solubilized by adding 100 µL acidified 10% SDS solution and incubated at 37 °C overnight. Plates were read for absorbance at 570 nm using a PHERAstar BMG microplate reader. The experiments were performed two times in quadruplicates with calculation of mean and SD for each condition. Data were analyzed in Prism 8.0.0 to obtain GI50 values.
# as §2
# (§4) Titration curves from the MTT cell viability assay performed after 4, 7, and 11 (or 10) days of
# (§5) Titration curves from the MTT cell viability assay performed after 7 days of treatment of KOPN8 ,
# (§6) MOLM13 and MV4;11 cell lines harboring MLL1 translocation (MLL1-r) or K562 cell line (non-
# (§7) Representative graphs are shown
# (§8) from two independent MTT experiments performed for each cell line.
# [3] = tested on: MV4;11 cells; experiment: MTT cell viability assay; conditions: for MV4;11 % activity: Fig S7a
# Protocol: as §3, §2, §4, §5, §6, §7, §8
# [4] = tested on: K562 cells; experiment: MTT cell viability assay; conditions: for % activity: Fig S7b
# Protocol: as §1, §2, §4, §5, §6, §7
# (§9) from two independent MTT experiments performed for each cell line. GI50 values correspond to […]
# [5] = tested on: KOPN8 cells; experiment: MTT cell viability assay; conditions: Fig S7a
# Protocol: as §1, §2, §4, §5, §6, §7, §9
smiles,measurement,setting,value
NC(=S)c1cccc(-c2cn(C3CCN(S(=O)(=O)C(F)(F)F)CC3)c3cc(CNC(=O)C4CNC4)ccc23)c1 [AS-85],GI50,[1],5 to 25 µM
same,% activity,"[2]; MOLM-13, log[AS-85] -4.60206",46.6646% and 47.2766% and 46.175% and 47.0318%
same,% activity,"[2]; MOLM-13, log[AS-85] -4.90309",81.426% and 94.7674% and 77.6316% and 82.4051%
same,% activity,"[2]; MOLM-13, log[AS-85] -5.20412",87.0563% and 95.9914% and 92.6867% and 98.1946%
same,% activity,"[2]; MOLM-13, log[AS-85] -5.50515",82.6499% and 85.9547% and 94.1555% and 88.7699%
same,% activity,"[2]; MOLM-13, log[AS-85] -5.80618",80.9364% and 84.3635% and 82.1603% and 93.6659%
same,% activity,"[2]; MOLM-13, log[AS-85] -6.10721",97.5826% and 103.213% and 93.6659% and 105.539%
same,% activity,"[2]; MOLM-13, log[AS-85] -6.40824",70.6548% and 70.0428% and 76.1628% and 72.1236%
same,MV4;11 % activity,"[3]; log[AS-85] -4.60206, d4",15.9329% and 16.3522% and 18.0892% and 16.4121%
same,MV4;11 % activity,"[3]; log[AS-85] -4.60206, d7",5.045% and 5.128% and 5.211%
same,MV4;11 % activity,"[3]; log[AS-85] -4.60206, d11",1.161% and 1.032% and 1.118%
same,MV4;11 % activity,"[3]; log[AS-85] -4.90309, d4",70.8595% and 67.0859% and 71.758% and 64.1509%
same,MV4;11 % activity,"[3]; log[AS-85] -4.90309, d7",25.0571% and 25.9705% and 23.8115% and 22.3998%
same,MV4;11 % activity,"[3]; log[AS-85] -4.90309, d11",9.6743% and 10.0613% and 9.029% and 8.943%
same,MV4;11 % activity,"[3]; log[AS-85] -5.20412, d4",102.965% and 99.1914% and 99.9102% and 86.1336%
same,MV4;11 % activity,"[3]; log[AS-85] -5.20412, d7",53.1243% and 51.7127% and 52.7922% and 54.6191%
same,MV4;11 % activity,"[3]; log[AS-85] -5.20412, d11",37.1063% and 36.8053% and 36.9343% and 41.621%
same,MV4;11 % activity,"[3]; log[AS-85] -5.50515, d4",92.5427% and 88.3498% and 97.8736% and 88.7691%
same,MV4;11 % activity,"[3]; log[AS-85] -5.50515, d7",76.7075% and 69.8983% and 73.8011% and 68.8188%
same,MV4;11 % activity,"[3]; log[AS-85] -5.50515, d11",72.8797% and 78.2113% and 64.4953% and 71.1168%
same,MV4;11 % activity,"[3]; log[AS-85] -5.80618, d11",77.7384% and 83.5429% and 90.8524%
same,MV4;11 % activity,"[3]; log[AS-85] -6.10721, d4",94.4594% and 94.1599% and 94.5792% and 108.955%
same,MV4;11 % activity,"[3]; log[AS-85] -6.10721, d7",101.951% and 92.1528% and 106.186% and 104.11%
same,MV4;11 % activity,"[3]; log[AS-85] -6.10721, d11",89.8205% and 93.8192% and 105.127% and 95.5821%
same,MV4;11 % activity,"[3]; log[AS-85] -6.40824, d4",98.1731% and 105.9% and 87.9305% and 107.996%
same,MV4;11 % activity,"[3]; log[AS-85] -6.40824, d7",98.879% and 95.8896% and 100.374% and 104.858%
same,MV4;11 % activity,"[3]; log[AS-85] -6.40824, d11",115.404% and 96.872% and 95.3671% and 92.3573%
same,% activity,"[3]; Fig S7b, MV4;11, log[AS-85] -5.80618",90.492% and 84.4301% and 90.3259% and 90.8242%
same,% activity,"[4]; K562, log[AS-85] -4.60206",94.8724% and 99.1495% and 96.3791% and 94.0462%
same,% activity,"[4]; K562, log[AS-85] -4.90309",126.464% and 120.486% and 116.938% and 123.451%
same,% activity,"[4]; K562, log[AS-85] -5.20412",111.154% and 105.225% and 103.767% and 109.259%
same,% activity,"[4]; K562, log[AS-85] -5.50515",104.836% and 103.329% and 104.35% and 109.745%
same,% activity,"[4]; K562, log[AS-85] -5.80618",94.1434% and 95.2126% and 95.6501% and 103.183%
same,% activity,"[4]; K562, log[AS-85] -6.10721",95.2612% and 103.524% and 101.142% and 100.073%
same,% activity,"[4]; K562, log[AS-85] -6.40824",94.0462% and 95.8931% and 100.705% and 97.4484%
same,effect on growth/proliferation of K562 cells,[4]; leukemia cells without MLL1 translocations,no effect
same,KOPN8 % activity,"[5]; log[AS-85] -4.60206, d4",16.3539% and 14.6687% and 8.541% and 8.847%
same,KOPN8 % activity,"[5]; log[AS-85] -4.60206, d7",5.4864%
same,KOPN8 % activity,"[5]; log[AS-85] -4.60206, d10",12.6028% and 11.8131% and 12.208%
same,KOPN8 % activity,"[5]; log[AS-85] -4.90309, d4",78.3991% and 80.3907% and 79.1651% and 80.3906%
same,KOPN8 % activity,"[5]; log[AS-85] -4.90309, d7",47.9023% and 50.2997% and 49.1932% and 51.4062%
same,KOPN8 % activity,"[5]; log[AS-85] -4.90309, d10",23.001% and 25.765% and 16.1566% and 29.977%
same,KOPN8 % activity,"[5]; log[AS-85] -5.20412, d4",76.2543% and 85.293% and 81.9226% and 91.2677%
same,KOPN8 % activity,"[5]; log[AS-85] -5.20412, d7",72.4297% and 74.2739% and 78.5154% and 71.5076%
same,KOPN8 % activity,"[5]; log[AS-85] -5.20412, d10",57.6176% and 47.8776% and 61.0398% and 75.3866%
same,KOPN8 % activity,"[5]; log[AS-85] -5.50515, d4",81.7694% and 85.9058% and 95.8637% and 96.7828%
same,KOPN8 % activity,"[5]; log[AS-85] -5.50515, d7",82.5726% and 92.5311% and 77.2245% and 78.5154%
same,KOPN8 % activity,"[5]; log[AS-85] -5.50515, d10",103.817% and 88.6805% and 64.9885% and 80.7832%
same,KOPN8 % activity,"[5]; log[AS-85] -5.80618, d4",78.2459% and 90.8081% and 100.766% and 94.0253%
same,KOPN8 % activity,"[5]; log[AS-85] -5.80618, d7",80.7284% and 79.9908% and 94.5597% and 75.0115%
same,KOPN8 % activity,"[5]; log[AS-85] -5.80618, d10",93.8137% and 85.6532% and 79.9934% and 79.7302%
same,KOPN8 % activity,"[5]; log[AS-85] -6.10721, d4",86.825% and 91.4209% and 95.8637% and 91.5741%
same,KOPN8 % activity,"[5]; log[AS-85] -6.10721, d7",99.9078% and 107.284% and 86.6298% and 85.5233%
same,KOPN8 % activity,"[5]; log[AS-85] -6.10721, d10",118.032% and 101.579% and 87.2326% and 93.1556%
same,KOPN8 % activity,"[5]; log[AS-85] -6.40824, d4",98.6212% and 103.37% and 102.911% and 95.0977%
same,KOPN8 % activity,"[5]; log[AS-85] -6.40824, d7",100.461% and 105.072% and 99.7234% and 94.7441%
same,KOPN8 % activity,"[5]; log[AS-85] -6.40824, d10",81.3096% and 91.971% and 84.7318% and 80.9148%

# From paper PMC8121805, “Discovery of first-in-class inhibitors of ASH1L histone methyltransferase with anti-leukemic activity” (Nature Communications, 2021)
